Data from ChEMBL document CHEMBL5608246, “Membrane-Targeting Amphiphilic Honokiol Derivatives Containing an Oxazole Moiety as Potential Antibacterials against Methicillin-Resistant Staphylococcus aureus” (J Med Chem, 2024).
Activity calls are given as the source filed them. No cut-off for these calls is given here.

Key:
Staphylococcus aureus [1] = experiment: Antibacterial activity against methicillin resistant Staphylococcus aureus M16 incubated for 16 to 18 hrs by broth dilution method; assay type: functional; conditions: time 16-18 hrs
Staphylococcus aureus [2] = experiment: Inhibition of transcription in methicillin resistant Staphylococcus aureus N315 at 4 ug/ml incubated for 4 hrs by RNA-sequencing analysis; assay type: functional, organism-based; conditions: dose 4.0 µg/ml
Cell membrane [3] = experiment: Induction of membrane disruption in methicillin resistant Staphylococcus aureus 20 assessed as viable cells with intact membrane at 8 ug/ml incubated for 2 hrs by SYTO9/PI staining based flow cytometry analysis (reference value: 98.7%); assay type: cell membranes; conditions: dose 8.0 µg/ml
Staphylococcus aureus [4] = experiment: Inhibition of DNA replication in methicillin resistant Staphylococcus aureus N315 at 4 ug/ml incubated for 4 hrs by RNA-sequencing analysis; assay type: functional, organism-based; conditions: dose 4.0 µg/ml
Cell membrane [5] = experiment: Induction of membrane disruption in methicillin resistant Staphylococcus aureus 20 assessed as viable cells with intact membrane at 16 ug/ml incubated for 2 hrs by SYTO9/PI staining based flow cytometry analysis (reference value: 98.7%); assay type: cell membranes; conditions: dose 16.0 µg/ml
[6] = Toxicity in Kunming mouse assessed as change in platelet count at 20 mg/kg, sc measured after 24 hrs; assay type: organism-based; conditions: in vivo
[7] = Toxicity in Kunming mouse assessed as skin abnormalities at 20 mg/kg, sc measured after 24 hrs; assay type: organism-based; conditions: in vivo
[8] = Toxicity in Kunming mouse assessed as skin swelling at 40 to 80 mg/kg, sc measured after 24 hrs; assay type: organism-based; conditions: in vivo, dose 40-80 mg/kg
[9] = Selectivity index, ratio of HC50 for sheep RBC to MIC for Staphylococcus aureus ATCC 29213; assay type: toxicity; conditions: sheep red blood cells, read-out: Selectivity Index

SMILES: C=CCc1cc(-c2ccc(OCCC[N+](C)(C)CC(=O)NCCCC)c(CC=C)c2)c2oc(-c3c(Cl)cccc3Cl)nc2c1.[Br-]
- MIC (Staphylococcus aureus [1]): 2 µg/mL
- inhibition (Staphylococcus aureus [2]): Active
- Activity (Cell membrane [3]): 61.6%
- inhibition (Staphylococcus aureus [4]): Active
- Activity (Cell membrane [5]): 0.17%
- Activity [6]: Non-Toxic
- Activity [7]: Non-Toxic
- Activity [8]: Toxic
- selectivity ratio [9]: 54.5
